According to PubChem BioAssay AID248 (DTP/NCI, 2004):
Inconclusive results and toxic doses are left out. Cut-off read from the data, not from the text of the source: active = T/C of 150% or more; inactive = T/C below 125%.

Tested on: L1210 leukemia ip in BDF1 mice, survival T/C
Test: NCI In Vivo Anticancer Drug Screen. Data for tumor model L1210 Leukemia (intraperitoneal) in B6D2F1 (BDF1) mice
Settings: endpoint: mean survival time, higher = longer survival
Procedure, shortened: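 Each compound was tested against a transplantable tumor grown in mice. The endpoint was survival, with treated animals benchmarked against vehicle controls as a simple ratio.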

[1] = dose: 100.0 mg/kg/injection, schedule: Q04DX003 (ip), vehicle: Klucel (hydroxypropylcellulose) (HPC)
[2] = dose: 200.0 mg/kg/injection, schedule: Q04DX003 (ip), vehicle: Klucel (hydroxypropylcellulose) (HPC)
[3] = dose: 400.0 mg/kg/injection, schedule: Q04DX003 (ip), vehicle: Klucel (hydroxypropylcellulose) (HPC)
[4] = dose: 100.0 mg/kg/injection, schedule: Q04DX003 (ip), vehicle: saline with Tween-80
[5] = dose: 200.0 mg/kg/injection, schedule: Q04DX003 (ip), vehicle: saline with Tween-80
[6] = dose: 400.0 mg/kg/injection, schedule: Q04DX003 (ip), vehicle: saline with Tween-80
[7] = dose: 50.0 mg/kg/injection, schedule: Q01DX001 (ip), vehicle: saline
[8] = dose: 100.0 mg/kg/injection, schedule: Q01DX001 (ip), vehicle: saline
[9] = dose: 100.0 mg/kg/injection, schedule: Q01DX009 (ip), vehicle: Klucel (hydroxypropylcellulose) (HPC)
[10] = dose: 200.0 mg/kg/injection, schedule: Q01DX001 (ip), vehicle: saline
[11] = dose: 200.0 mg/kg/injection, schedule: Q01DX009 (ip), vehicle: Klucel (hydroxypropylcellulose) (HPC)
[12] = dose: 50.0 mg/kg/injection, schedule: Q01DX009 (ip), vehicle: saline
[13] = dose: 100.0 mg/kg/injection, schedule: Q01DX009 (ip), vehicle: saline
[14] = dose: 200.0 mg/kg/injection, schedule: Q01DX009 (ip), vehicle: saline
[15] = dose: 400.0 mg/kg/injection, schedule: Q01DX001 (ip), vehicle: saline
[16] = dose: 25.0 mg/kg/injection, schedule: Q01DX009 (ip), vehicle: saline
[17] = dose: 100.0 mg/kg/injection, schedule: Q04DX002 (ip), vehicle: Klucel (hydroxypropylcellulose) (HPC)
[18] = dose: 200.0 mg/kg/injection, schedule: Q04DX002 (ip), vehicle: Klucel (hydroxypropylcellulose) (HPC)
[19] = dose: 400.0 mg/kg/injection, schedule: Q04DX002 (ip), vehicle: Klucel (hydroxypropylcellulose) (HPC)

Measured: T/C

Cc1ccc(S(=O)(=O)NCCC(Cl)(Cl)Cl)cc1
inactive: [1] 104 % of control | [2] 101 % of control | [3] 98 % of control

NS(=O)(=O)c1ccc(NC(=S)NC(=O)/C=C/c2ccccc2)cc1
inactive: dose: 100.0 mg/kg/injection, schedule: Q01DX009 (sc), vehicle: olive oil, sesame oil, peanut oil 107 % of control | dose: 100.0 mg/kg/injection, schedule: Q04DX003 (sc), vehicle: olive oil, sesame oil, peanut oil 107 % of control | dose: 200.0 mg/kg/injection, schedule: Q01DX009 (sc), vehicle: olive oil, sesame oil, peanut oil 113 % of control | dose: 200.0 mg/kg/injection, schedule: Q04DX003 (sc), vehicle: olive oil, sesame oil, peanut oil 97 % of control | dose: 400.0 mg/kg/injection, schedule: Q01DX009 (sc), vehicle: olive oil, sesame oil, peanut oil 104 % of control | dose: 400.0 mg/kg/injection, schedule: Q04DX003 (sc), vehicle: olive oil, sesame oil, peanut oil 103 % of control

Cc1ccc(C)c(NC(=O)N(C2CCCCC2)C2CCCCC2)c1
inactive: dose: 100.0 mg/kg/injection, schedule: Q01DX009 (ip), vehicle: saline with Tween-80 112 % of control | [4] 100 % of control | dose: 200.0 mg/kg/injection, schedule: Q01DX009 (ip), vehicle: saline with Tween-80 101 % of control | [5] 94 % of control | dose: 400.0 mg/kg/injection, schedule: Q01DX009 (ip), vehicle: saline with Tween-80 107 % of control | [6] 97 % of control

COC(OC)c1cc(=O)[nH]c(N)n1
inactive: [7] 103 % of control | dose: 50.0 mg/kg/injection, schedule: Q01DX009 (ip), vehicle: Klucel (hydroxypropylcellulose) (HPC) 109 % of control | dose: 50.0 mg/kg/injection, schedule: Q04DX003 (ip), vehicle: Klucel (hydroxypropylcellulose) (HPC) 97 % of control | [8] 101 % of control | [9] 100 % of control | [1] 93 % of control | [10] 108 % of control | [11] 104 % of control | [2] 96 % of control

CCOC(=O)C(=N\Nc1ccc(Cl)cc1Cl)/C(C)=N\NC(N)=S
inactive: dose: 75.0 mg/kg/injection, schedule: Q01DX001 (ip), vehicle: saline 95 % of control | dose: 300.0 mg/kg/injection, schedule: Q01DX001 (ip), vehicle: saline 104 % of control

O=C1CCC2(CCC(=O)O2)O1
inactive: [12] 100 % of control | [13] 100 % of control | [14] 92 % of control

CCOC(=O)CCc1c(C(=O)OCC)[nH]c(C)c1C(=O)OCc1ccccc1
inactive: [1] 100 % of control | [2] 101 % of control | [3] 108 % of control

CC(=O)OC1CC(OC2C(O)CC(OC3C(O)CC(OC4CCC5(C)C(CCC6C5CC(O)C5(C)C(C7=CC(=O)OC7)CCC65O)C4)OC3C)OC2C)OC(C)C1O (centres undefined) (tested in a mixture with another compound)
inactive: dose: 100.0 mg/kg/injection, schedule: Q01DX001 (sc), vehicle: steriod suspending solution 97 % of control | dose: 200.0 mg/kg/injection, schedule: Q01DX001 (sc), vehicle: steriod suspending solution 101 % of control

O=C(OC1CCC/C=C\CCCC1)c1ccc([N+](=O)[O-])cc1 (centres undefined)
inactive: [8] 93 % of control | [10] 98 % of control | [15] 96 % of control

O=C(Nc1ccccc1[N+](=O)[O-])OCc1ccc([N+](=O)[O-])cc1
inactive: [4] 92 % of control | [5] 105 % of control | [6] 105 % of control

c1ccc2snnc2c1
inactive: dose: 20.0 mg/kg/injection, schedule: Q01DX001 (ip), vehicle: saline 102 % of control | dose: 40.0 mg/kg/injection, schedule: Q01DX001 (ip), vehicle: saline 104 % of control | dose: 80.0 mg/kg/injection, schedule: Q01DX001 (ip), vehicle: saline 98 % of control

Cc1ccc(C(C)C)cc1NC(=O)Nc1ccccc1F
inactive: [9] 91 % of control | [11] 86 % of control

CCC1COC(=O)N1 (centres undefined)
inactive: [16] 102 % of control | [7] 95 % of control | [12] 105 % of control | [8] 100 % of control

CCN(CC)CCOC(=O)c1cccnc1
inactive: [16] 96 % of control | dose: 25.0 mg/kg/injection, schedule: Q04DX003 (ip), vehicle: saline 103 % of control | [12] 94 % of control | dose: 50.0 mg/kg/injection, schedule: Q04DX003 (ip), vehicle: saline 97 % of control | [13] 100 % of control | dose: 100.0 mg/kg/injection, schedule: Q04DX003 (ip), vehicle: saline 97 % of control | [14] 86 % of control | dose: 200.0 mg/kg/injection, schedule: Q04DX003 (ip), vehicle: saline 95 % of control | dose: 400.0 mg/kg/injection, schedule: Q01DX009 (ip), vehicle: saline 107 % of control | dose: 400.0 mg/kg/injection, schedule: Q04DX003 (ip), vehicle: saline 101 % of control

COC(=O)N/N=C/c1ccc(C)cc1
inactive: [17] 108 % of control | [18] 115 % of control | [19] 94 % of control

CCOC1OC(c2ccccc2)=NS(=O)(=O)C1(C)C (centres undefined)
inactive: [17] 103 % of control | [18] 106 % of control | [19] 103 % of control

CCCCSc1n[nH]c(=O)nc1N
inactive: [8] 93 % of control | [10] 96 % of control | [15] 98 % of control

CC(=O)Nc1ccc(N=Nc2ccccc2)cc1
inactive: dose: 100.0 mg/kg/injection, schedule: Q01DX001 (ip), vehicle: Klucel (hydroxypropylcellulose) (HPC) 100 % of control | dose: 200.0 mg/kg/injection, schedule: Q01DX001 (ip), vehicle: Klucel (hydroxypropylcellulose) (HPC) 100 % of control | dose: 400.0 mg/kg/injection, schedule: Q01DX001 (ip), vehicle: Klucel (hydroxypropylcellulose) (HPC) 96 % of control

O=C(O)/C(=C\c1ccccc1)c1ccc([N+](=O)[O-])cc1
inactive: [4] 103 % of control | [5] 92 % of control | [6] 92 % of control

CC(=O)SCCC(=O)O
inactive: dose: 8.25 mg/kg/injection, schedule: Q01DX009 (ip), vehicle: saline 94 % of control | dose: 12.5 mg/kg/injection, schedule: Q01DX009 (ip), vehicle: saline 92 % of control | dose: 18.75 mg/kg/injection, schedule: Q01DX009 (ip), vehicle: saline 103 % of control

Brc1ccc2c(c1)/C(=C/c1ccccc1)c1ccccc1-2
inactive: dose: 25.0 mg/kg/injection, schedule: Q04DX002 (ip), vehicle: DMSO 92 % of control | dose: 50.0 mg/kg/injection, schedule: Q04DX002 (ip), vehicle: DMSO 95 % of control
